What is called IC50 is the concentration that gives 50% inhibition. Read a low IC50 as greater potency in that assay.

Our source for the IC50 values is ChEMBL document CHEMBL5036381, “Novel Plasma Kallikrein Inhibitors for Treating Hereditary Angioedema, Diabetic Macular Edema, and Diabetic Retinopathy” (ACS Med Chem Lett, 2022).

The assay deals with Plasma kallikrein (Homo sapiens, UniProt P03952). The experiment in a line: Inhibition of human plasma kallikrein using fluorogenic substrate measured by microplate reader analysis. It is filed as cell-free.
Sequence of Plasma kallikrein (P03952 20-390 limits assumed): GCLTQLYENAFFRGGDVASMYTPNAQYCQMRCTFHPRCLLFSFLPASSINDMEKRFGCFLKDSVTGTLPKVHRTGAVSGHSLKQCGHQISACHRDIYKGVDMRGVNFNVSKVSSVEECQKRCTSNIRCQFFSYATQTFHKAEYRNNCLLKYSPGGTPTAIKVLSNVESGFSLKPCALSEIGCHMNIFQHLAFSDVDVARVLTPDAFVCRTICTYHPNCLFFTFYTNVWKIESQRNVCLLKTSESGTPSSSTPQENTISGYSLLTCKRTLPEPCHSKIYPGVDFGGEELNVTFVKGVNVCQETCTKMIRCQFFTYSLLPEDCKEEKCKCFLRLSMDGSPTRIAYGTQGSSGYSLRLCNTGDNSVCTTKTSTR
Sequence of Plasma kallikrein (P03952 391-638 limits assumed): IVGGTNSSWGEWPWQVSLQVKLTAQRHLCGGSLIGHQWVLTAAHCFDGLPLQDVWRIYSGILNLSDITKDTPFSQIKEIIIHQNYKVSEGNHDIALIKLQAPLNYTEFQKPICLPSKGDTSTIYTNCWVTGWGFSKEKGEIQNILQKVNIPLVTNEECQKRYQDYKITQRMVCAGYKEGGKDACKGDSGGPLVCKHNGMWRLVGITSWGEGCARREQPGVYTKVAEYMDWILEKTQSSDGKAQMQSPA

`Cc1c([C@H](C)n2cc(NC(=O)c3cncc(-c4c(C(F)F)ccc(Cl)c4F)n3)cn2)cnc(N2C[C@H]3C[C@H]3C2=O)c1F` came in with an IC50 of 0.3 nM. `COc1c(N2C[C@H]3C[C@H]3C2=O)ncc(C(C)n2cc(NC(=O)c3cncc(-c4c(C(F)F)ccc(Cl)c4F)n3)cn2)c1C` (some centres not stated): half-maximal inhibition (IC50) required 0.3 nM.
